Test results taken from patent US20040029965A1, “Formulations for reducing or eliminating toxicity of enviromental hormones containing ursodeoxycholic acid” (priority 2000, published 2004).
Marks after values point to notes of the source that are not given here.

How the values were obtained:
C57B1/6J mice [1] = assay: Hematological changes in mice by a single subcutaneous injection of TCDD; assay type: in vivo; design: NEU / LYM / PLT: unit not given here
Protocol: (§1) Male C57B1/6J mice of 5 weeks old having the average weight of 18-22 g which had been bred in CRJ (Charles River in Japan) were purchased and used in this example as experimental animals. Those mice were acclimated under the constant breeding condition, i.e. the temperature of 24±1° C., the humidity of 60±10% and the light and darkness cycle of 12 hours, for one week and thereafter, utilized in the experiment.
(§2) 2,3,7,8-tetrachlorodibenzo-p-dioxin (TCDD) dissolved in toluene (purity of 95% or more as a result of gas chromatography analysis), manufactured by Chem. Services Inc. in USA, was volatilized with nitrogen to obtain powder. The obtained powder was dissolved in a mixed solvent containing acetone and corn oil with a volume ratio of 1:6. The resulting solution each containing 110, 27.5 and 6.9 μg/kg of TCDD was subcutaneously injected to mice at a volume of 5 ml per body weight. […] The mice were supplied with the feed from 10 days before (pre-administration) to 60 days after administration of TCDD (post-administration).
(§3) Upon completion of the experiment for 60 days, the experimental animals were fasted for 24 hours and anesthetized with ether. Then, they were abdominally incised and blood was gathered from abdominal vena cava. They were sacrificed by the release of blood. Liver, kidneys, testes and epididymides were extracted and all the extracted organs were weighed. Only the testes were separately kept and observed under optical and electron microscopes. For biochemical finding test, serum was separated from blood with a centrifuge and the separated serum was analyzed with an automated blood biochemical analyzer, Dimension (Dupont, USA). Blood was put to another blood gathering bottle and then, analyzed with an automated blood cell analyzer, Celldyn (Abbott, USA).
(§4) The results are expressed as Mean±Standard Deviation values. For statistical analysis of the body weight, feed and water uptake, biochemical findings, hematological findings and the weight of organ in an acute toxicity test, verification was performed by one way analysis of variance (ANOVA) in case of equal distribution. In case significance was recognized in ANOVA, the Student's t-test was performed in the levels of p<0.05 and p<0.01.
For hematological findings, white blood cell (WBC), neutrophil (NEU), lymphocyte (LYM), monocyte (MONO), eosinophil (EOS), basophil (BASO) and red blood cell (RBC) counts, and hemoglobin concentration (HGB), hematocrit (HCT), mean cell volume (MCV), mean corpuscular hemoglobin (MCH), mean corpuscular hemoglobin concentration (MCHC), red blood cell distribution width (RDW) and platelet count (PLT) were measured and the results are as follows.

C57B1/6J mice [2] = assay: Blood (serum) biochemical changes in mice by a single subcutaneous injection of TCDD; assay type: in vivo
Protocol: as §1, §2, §3, §4
For biochemical findings in the serum, the levels of glucose (GLU), GOT, GPT, Triglyceride (TG), high density lipoprotein (HDL-C), low density lipoprotein (LDL-C) and alkaline phosphatase (ALP) in serum were measured and the results are shown in the following.

[3] = TCDD 27.5 μg/kg + UDCA 0.25 wt %
[4] = TCDD 27.5 μg/kg + UDCA 0.5 wt %
[5] = TCDD 6.9 μg/kg + UDCA 0.125 wt %
[6] = TCDD 6.9 μg/kg + UDCA 0.25 wt %
[7] = TCDD 27.5 μg/kg + UDCA 0.125 wt %

C[C@H](CCC(=O)O)[C@H]1CC[C@H]2[C@@H]3[C@@H](O)C[C@@H]4C[C@H](O)CC[C@]4(C)[C@H]3CC[C@]12C [UDCA, 3α, 7β-dihydroxy-5β-cholanoic acid]
MCV (C57B1/6J mice [1]; [3]): 46.09 ± 0.42 fL | MONO (C57B1/6J mice [1]; [3]): 0.05 ± 0.03 10^3 | NEU (C57B1/6J mice [1]; [3]): 0.48 ± 0.09## 10^3 | PLT (C57B1/6J mice [1]; [3]): 1069.70 ± 128.48## 10^3 | RBC (C57B1/6J mice [1]; [3]): 9.48 ± 0.29 10^6 | RDW (C57B1/6J mice [1]; [3]): 19.99 ± 1.08% | WBC (C57B1/6J mice [1]; [3]): 3.78 ± 1.19 10^3 | BASO (C57B1/6J mice [1]; [4]): 0.14 ± 0.07 10^3 | EOS (C57B1/6J mice [1]; [4]): 0.005 ± 0.003 10^3 | HCT (C57B1/6J mice [1]; [4]): 44.49 ± 1.63 % | HGB (C57B1/6J mice [1]; [4]): 14.80 ± 0.78 g/dL | LYM (C57B1/6J mice [1]; [4]): 3.04 ± 0.77## 10^3 | MCH (C57B1/6J mice [1]; [4]): 15.46 ± 0.59 pg | MCHC (C57B1/6J mice [1]; [4]): 33.23 ± 1.04 g/dL | MCV (C57B1/6J mice [1]; [4]): 46.46 ± 0.86 fL | MONO (C57B1/6J mice [1]; [4]): 0.05 ± 0.04 10^3 | NEU (C57B1/6J mice [1]; [4]): 0.59 ± 0.23## 10^3 | PLT (C57B1/6J mice [1]; [4]): 1068.14 ± 84.28## 10^3 | RBC (C57B1/6J mice [1]; [4]): 9.57 ± 0.25 10^6 | RDW (C57B1/6J mice [1]; [4]): 20.44 ± 0.82% | WBC (C57B1/6J mice [1]; [4]): 3.71 ± 0.99 10^3 | ALP (C57B1/6J mice [2]; [5]): 66.78 ± 7.21 IU/l | GLU (C57B1/6J mice [2]; [5]): 128.00 ± 27.26 mg/dL | GOT (C57B1/6J mice [2]; [5]): 49.80 ± 2.74 IU/l | GPT (C57B1/6J mice [2]; [5]): 23.50 ± 8.32 IU/l | HDL-C (C57B1/6J mice [2]; [5]): 45.67 ± 2.74 mg/dL | LDL-C (C57B1/6J mice [2]; [5]): 14.56 ± 6.28 mg/dL | TG (C57B1/6J mice [2]; [5]): 79.56 ± 1129 mg/dL | ALP (C57B1/6J mice [2]; [6]): 72.05 ± 6.63 IU/l | GLU (C57B1/6J mice [2]; [6]): 104.60 ± 24.87 mg/dL | GOT (C57B1/6J mice [2]; [6]): 57.30 ± 4.83 IU/l | GPT (C57B1/6J mice [2]; [6]): 24.00 ± 6.39 IU/l | HDL-C (C57B1/6J mice [2]; [6]): 46.30 ± 5.08 mg/dL | LDL-C (C57B1/6J mice [2]; [6]): 21.20 ± 5.25 mg/dL | TG (C57B1/6J mice [2]; [6]): 75.90 ± 11.55 mg/dL | ALP (C57B1/6J mice [2]; TCDD 6.9 μg/kg + UDCA 0.5 wt %): 85.24 ± 10.28 IU/l | GLU (C57B1/6J mice [2]; TCDD 6.9 μg/kg + UDCA 0.5 wt %): 125.50 ± 14.98 mg/dL | GOT (C57B1/6J mice [2]; TCDD 6.9 μg/kg + UDCA 0.5 wt %): 47.11 ± 1.9 IU/l | GPT (C57B1/6J mice [2]; TCDD 6.9 μg/kg + UDCA 0.5 wt %): 18.78 ± 5.07 IU/l | HDL-C (C57B1/6J mice [2]; TCDD 6.9 μg/kg + UDCA 0.5 wt %): 44.83 ± 2.04 mg/dL | LDL-C (C57B1/6J mice [2]; TCDD 6.9 μg/kg + UDCA 0.5 wt %): 28.33 ± 4.63 mg/dL | TG (C57B1/6J mice [2]; TCDD 6.9 μg/kg + UDCA 0.5 wt %): 84.20 ± 7.66 mg/dL | ALP (C57B1/6J mice [2]; [7]): 75.14 ± 18.33 IU/l | GLU (C57B1/6J mice [2]; [7]): 55.22 ± 9.34 mg/dL | GOT (C57B1/6J mice [2]; [7]): 75.22 ± 6.38 IU/l | GPT (C57B1/6J mice [2]; [7]): 54.67 ± 23.28 IU/l | HDL-C (C57B1/6J mice [2]; [7]): 34.78 ± 4.35 mg/dL | LDL-C (C57B1/6J mice [2]; [7]): 2.40 ± 1.14 mg/dL | TG (C57B1/6J mice [2]; [7]): 98.78 ± 17.14 mg/dL | ALP (C57B1/6J mice [2]; [3]): 79.63 ± 6.07 IU/l | GLU (C57B1/6J mice [2]; [3]): 82.44 ± 13.04 mg/dL | GOT (C57B1/6J mice [2]; [3]): 58.67 ± 5.54 IU/l | GPT (C57B1/6J mice [2]; [3]): 42.11 ± 22.05 IU/l | HDL-C (C57B1/6J mice [2]; [3]): 37.44 ± 3.64 mg/dL | LDL-C (C57B1/6J mice [2]; [3]): 4.29 ± 4.03 mg/dL | TG (C57B1/6J mice [2]; [3]): 97.00 ± 17.68 mg/dL | ALP (C57B1/6J mice [2]; [4]): 80.57 ± 14.52 IU/l | GLU (C57B1/6J mice [2]; [4]): 64.22 ± 9.35 mg/dL | GOT (C57B1/6J mice [2]; [4]): 96.67 ± 31.63 IU/l | GPT (C57B1/6J mice [2]; [4]): 45.38 ± 21.74 IU/l | HDL-C (C57B1/6J mice [2]; [4]): 47.00 ± 7.66 mg/dL | LDL-C (C57B1/6J mice [2]; [4]): 15.33 mg/dL | TG (C57B1/6J mice [2]; [4]): 133.33 ± 13.17 mg/dL
